According to US9902696B2, “1,4-substituted piperidine derivatives” (Cephalon, Inc., priority 2015, dated 2018):
Where a name gives a salt, the structure may show the parent alone.

Target: T1, recombinant human baculovirus-expressed GST-tagged FASN (Homo sapiens, UniProt P49327)
T1 construct: GST
Assay: FASN enzyme activity assay, fluorescence-based detection of CoA with CPM
Assay type: biochemical
Conditions: 5 nM FASN, 150 μM NADPH, 10 μM acetyl-CoA, 25 μM malonyl-CoA, 90 minutes incubation; read-out: IC50 data for Compounds of Formulae I-V/V(a): Activity
Method in brief: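 CoA product reacted with thiol-reactive CPM (diluted to 50 μM in 70% ethanol), read at 390/530 nm after 30 min. Preceding reaction: 90 min, 5 nM recombinant GST-FASN, 150 μM NADPH, 10 μM acetyl-CoA, 25 μM malonyl-CoA, pH 7.5 HEPES, 0.5% DMSO. IC50s fitted by nonlinear sigmoidal regression.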

T1 sequence (P49327 whole entry): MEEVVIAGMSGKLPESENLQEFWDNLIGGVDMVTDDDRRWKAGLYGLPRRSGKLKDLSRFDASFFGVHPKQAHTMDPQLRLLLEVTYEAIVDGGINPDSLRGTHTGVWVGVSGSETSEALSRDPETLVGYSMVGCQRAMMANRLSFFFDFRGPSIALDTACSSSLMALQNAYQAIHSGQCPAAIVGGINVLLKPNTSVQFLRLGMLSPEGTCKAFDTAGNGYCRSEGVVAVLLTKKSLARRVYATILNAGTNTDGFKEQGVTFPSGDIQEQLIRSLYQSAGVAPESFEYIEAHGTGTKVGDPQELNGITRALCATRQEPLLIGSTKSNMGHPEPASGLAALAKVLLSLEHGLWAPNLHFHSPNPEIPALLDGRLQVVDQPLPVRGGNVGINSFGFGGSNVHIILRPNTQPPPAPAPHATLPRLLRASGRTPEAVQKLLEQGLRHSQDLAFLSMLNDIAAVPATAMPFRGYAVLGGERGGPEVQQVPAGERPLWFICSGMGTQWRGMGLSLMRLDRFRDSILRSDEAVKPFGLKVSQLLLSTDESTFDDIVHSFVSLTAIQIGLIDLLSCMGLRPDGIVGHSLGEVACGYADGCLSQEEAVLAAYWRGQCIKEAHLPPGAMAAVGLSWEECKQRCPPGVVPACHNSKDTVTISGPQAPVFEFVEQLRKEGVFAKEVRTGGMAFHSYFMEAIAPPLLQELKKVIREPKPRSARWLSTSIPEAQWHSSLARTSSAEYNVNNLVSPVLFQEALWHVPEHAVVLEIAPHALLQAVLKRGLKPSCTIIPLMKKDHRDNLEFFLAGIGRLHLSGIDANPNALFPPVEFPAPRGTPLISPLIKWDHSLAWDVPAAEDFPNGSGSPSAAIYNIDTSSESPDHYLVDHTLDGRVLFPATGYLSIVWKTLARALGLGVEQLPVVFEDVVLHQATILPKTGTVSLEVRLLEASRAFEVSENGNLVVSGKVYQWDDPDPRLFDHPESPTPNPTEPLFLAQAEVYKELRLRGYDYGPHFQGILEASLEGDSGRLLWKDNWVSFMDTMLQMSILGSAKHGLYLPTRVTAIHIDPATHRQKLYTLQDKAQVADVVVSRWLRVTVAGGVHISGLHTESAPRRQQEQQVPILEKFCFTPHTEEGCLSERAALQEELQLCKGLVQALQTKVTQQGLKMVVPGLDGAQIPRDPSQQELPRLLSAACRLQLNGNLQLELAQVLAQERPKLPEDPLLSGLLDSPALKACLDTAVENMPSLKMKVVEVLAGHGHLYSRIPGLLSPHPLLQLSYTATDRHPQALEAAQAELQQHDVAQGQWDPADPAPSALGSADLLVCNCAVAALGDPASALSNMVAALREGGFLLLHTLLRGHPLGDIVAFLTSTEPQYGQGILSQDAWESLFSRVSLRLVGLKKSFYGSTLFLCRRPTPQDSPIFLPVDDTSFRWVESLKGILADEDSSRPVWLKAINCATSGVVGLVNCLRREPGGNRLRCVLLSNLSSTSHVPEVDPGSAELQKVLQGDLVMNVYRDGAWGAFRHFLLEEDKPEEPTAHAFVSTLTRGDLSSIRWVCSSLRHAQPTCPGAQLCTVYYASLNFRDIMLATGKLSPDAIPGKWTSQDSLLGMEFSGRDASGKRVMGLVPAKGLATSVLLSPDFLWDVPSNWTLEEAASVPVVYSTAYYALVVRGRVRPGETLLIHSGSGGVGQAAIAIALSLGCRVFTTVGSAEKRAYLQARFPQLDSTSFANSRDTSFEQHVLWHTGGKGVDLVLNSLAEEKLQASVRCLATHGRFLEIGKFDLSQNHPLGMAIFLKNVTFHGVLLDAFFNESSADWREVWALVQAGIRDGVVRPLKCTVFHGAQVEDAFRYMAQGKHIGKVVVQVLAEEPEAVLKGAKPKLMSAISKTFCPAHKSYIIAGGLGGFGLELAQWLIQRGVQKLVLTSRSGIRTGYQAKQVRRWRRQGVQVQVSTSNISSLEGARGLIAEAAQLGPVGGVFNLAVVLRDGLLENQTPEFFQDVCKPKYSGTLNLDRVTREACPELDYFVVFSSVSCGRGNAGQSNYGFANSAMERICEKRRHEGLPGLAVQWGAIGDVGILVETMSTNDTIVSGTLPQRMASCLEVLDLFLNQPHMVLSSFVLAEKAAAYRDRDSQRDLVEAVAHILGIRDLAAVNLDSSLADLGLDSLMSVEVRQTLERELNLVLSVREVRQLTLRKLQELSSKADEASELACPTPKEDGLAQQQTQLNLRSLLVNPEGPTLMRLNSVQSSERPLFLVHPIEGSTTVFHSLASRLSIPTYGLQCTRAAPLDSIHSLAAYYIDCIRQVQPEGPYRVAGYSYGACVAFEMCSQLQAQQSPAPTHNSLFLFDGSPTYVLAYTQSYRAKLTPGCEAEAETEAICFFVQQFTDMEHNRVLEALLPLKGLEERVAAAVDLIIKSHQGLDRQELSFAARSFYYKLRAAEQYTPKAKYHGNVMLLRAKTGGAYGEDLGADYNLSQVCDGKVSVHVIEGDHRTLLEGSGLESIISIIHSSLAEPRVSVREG

SMILES | IC50 [nM]
COCCNc1c(-c2ccc(OC3CCN(C(=O)[C@H]4CCCO4)CC3)cc2)ccc2cccnc12 [Example 327, (4-{4-[8-(2-Methoxyethylamino)-quinolin-7-yl]-phenoxy}-piperidin-1-yl)-(R)-tetrahydrofuran-2-yl-methanone] | 1 to 99
CCC(=O)N1CCC(Oc2ccc(-c3ccc4cccnc4c3NCCOC)cc2)CC1 [Example 328, 1-(4-{4-[8-(2-Methoxyethylamino)-quinolin-7-yl]-phenoxy}-piperidin-1-yl)-propan-1-one] | 100 to 999
CN(C)CCNc1c(-c2ccc(OC3CCN(C(=O)[C@H]4CCCO4)CC3)cc2)ccc2cccnc12 [Example 329, (4-{4-[8-(2-Dimethylaminoethylamino)-quinolin-7-yl]-phenoxy}-piperidin-1-yl)-(R)tetrahydrofuran-2-yl-methanone] | 1 to 99
O=C([C@H]1CCCO1)N1CCC(Oc2ccc(-c3ccc4cccnc4c3NCCN3CCCC3)cc2)CC1 [Example 334, (4-{4-[8-(2-Pyrrolidin-1-yl-ethylamino)-quinolin-7-yl]-phenoxy}-piperidin-1-yl)-(R)-tetrahydrofuran-2-yl-methanone] | 100 to 999
NC(=O)c1c(-c2ccc(OC3CCN(C(=O)[C@H]4CCCO4)CC3)cc2)ccc2cccnc12 [Example 336, 7-[4-[[1-[(2R)-Tetrahydrofuran-2-carbonyl]-4 piperidyl]oxy]phenyl]quinoline-8-carboxamide] | 100 to 999
CCC(=O)N1CCC(Oc2ccc(-c3ccc4cccnc4c3C(N)=O)cc2)CC1 [Example 337, 7-[4-(1-Propionyl-piperidin-4-yloxy)-phenyl]-quinoline-8-carboxylic acid amide] | 1000 to 10000
CCC(=O)N1CC[C@@H](Oc2ccc(-c3ccc4cccnc4c3)cc2)C1 [Example 344, (R)-1-(3-(4-(Quinolin-7-yl)phenoxy)pyrrolidin-1-yl)propan-1-one, HCl] | 100 to 999
CCC(=O)N1CC[C@@H](Oc2ccc(-c3cnc4ccccc4c3)cc2)C1 [Example 345, (R)-1-(3-(4-(quinolin-3-yl)phenoxy)pyrrolidin-1-yl)propan-1-one, HCl] | 1000 to 10000
CCC(=O)N1CCC(Oc2ccc(-c3cc(C)c4cccnc4c3)cc2)CC1 [Example 346, 1-(4-(4-(5-Methylquinolin-7-yl)phenoxy)piperidin-1-yl)propan-1-one, HCl] | 100 to 999
Cc1cc(-c2ccc(OC3CCN(C(=O)C4CC4)CC3)cc2)cc2ncccc12 [Example 347, Cyclopropyl(4-(4-(5-methylquinolin-7-yl)phenoxy)piperidin-1-yl)methanone, HCl] | 100 to 999
CCC(=O)N1CCC(Oc2ccc(-c3c(C)ccc4ncccc34)cc2)CC1 [Example 350, 1-(4-(4-(6-Methylquinolin-5-yl)phenoxy)piperidin-1-yl)propan-1-one HCl] | 100 to 999
Cc1ccc2ncccc2c1-c1ccc(OC2CCN(C(=O)C3CC3)CC2)cc1 [Example 351, Cyclopropyl(4-(4-(6-methylquinolin-5-yl)phenoxy)piperidin-1-yl)methanone, HCl] | 100 to 999
Cc1cc(-c2ccc(OC3CCN(C(=O)[C@H]4CCCO4)CC3)cc2)cc2ncccc12 [Example 352, (R)-(4-(4-(5-Methylquinolin-7-yl)phenoxy)piperidin-1-yl)(tetrahydrofuran-2-yl)methanone] | 1 to 99
Cc1c(-c2ccc(OC3CCN(C(=O)C(F)(F)F)CC3)cc2)ccc2cccnc12 [Example 357, 2,2,2-Trifluoro-1-{4-[4-(8-methyl-quinolin-7-yl)-phenoxy]-piperidin-1-yl}-ethanone] | 1000 to 10000
Cc1c(-c2ccc(OC3CCN(C(=O)C(C)F)CC3)cc2)ccc2cccnc12 (centres unmarked) [Example 359, 2-Fluoro-1-{4-[4-(8-methylquinolin-7-yl)-phenoxy]-piperidin-1-yl}-propan-1-one, HCl] | 1 to 99
Cc1c(-c2ccc(O[C@@H]3C[C@H]4CC[C@@H](C3)N4C(=O)[C@H]3CCCO3)cc2)ccc2cccnc12 [Example 360, {exo-3-[4-(8-Methylquinolin-7-yl)-phenoxy]-8-aza-bicyclo[3.2.1]oct-8-yl}-(R)-tetrahydrofuran-2-yl-methanone, HCl] | 100 to 999
CCC(=O)N1[C@@H]2CC[C@H]1C[C@@H](Oc1ccc(-c3ccc4cccnc4c3C)cc1)C2 [Example 369, 1-{endo-3-[4-(8-Methylquinolin-7-yl)-phenoxy]-8-aza-bicyclo[3.2.1]oct-8-yl}-propan-1-one, HCl] | 100 to 999
Cc1c(-c2ccc(O[C@H]3C[C@H]4CC[C@@H](C3)N4C(=O)C3CC3)cc2)ccc2cccnc12 [Example 370, Cyclopropyl-{endo-3-[4-(8-methylquinolin-7-yl)-phenoxy]-8-aza-bicyclo-[3.2.1]oct-8-yl}-methanone, HCl] | 100 to 999
Cc1c(-c2ccc(O[C@H]3C[C@H]4CC[C@@H](C3)N4C(=O)[C@H]3CCCO3)cc2)ccc2cccnc12 [Example 371, {endo-3-[4-(8-Methylquinolin-7-yl)-phenoxy]-8-aza-bicyclo[3.2.1]oct-8-yl}-(R)-tetrahydrofuran-2-yl-methanone, HCl] | 1 to 99
Cc1c(-c2ccc(OC3CCN(C(=O)C4CC4)CC3C)cc2)ccc2cccnc12 (centres unmarked) [Example 376, Cyclopropyl-{3-methyl-4-[4-(8-methylquinolin-7-yl)-phenoxy]-piperidin-1-yl}-methanone, TFA salt] | 1 to 99
CCC(=O)N1CCC(Oc2ccc(-c3ccc(-c4ccccc4)nc3)cc2)CC1 [Example 378, 1-{4-[4-(6-Phenyl-pyridin-3-yl)-phenoxy]-piperidin-1-yl}-propan-1-one] | 1000 to 10000
O=C(C1CCC1)N1CCC(Oc2ccc(-c3ccc(-c4ccccc4)nc3)cc2)CC1 [Example 381, Cyclobutyl-{4-[4-(6-phenyl-pyridin-3-yl)-phenoxy]-piperidin-1-yl}-methanone] | 100 to 999
CC(C)C(=O)N1CCC(Oc2ccc(-c3cncc(-c4ccccc4)c3)cc2)CC1 [Example 383] | 1000 to 10000

Continued, values first:

IC50 [nM] | SMILES
100 to 999 | CCC(=O)N1CCC(Oc2ccc(-c3ccc4cccnc4c3C#N)cc2)CC1 [Example 330, 7-[4-(1-Propionyl-piperidin-4-yloxy)-phenyl]-quinoline-8-carbonitrile]
1 to 99 | CN(C)c1c(-c2ccc(OC3CCN(C(=O)[C@H]4CCCO4)CC3)cc2)ccc2cccnc12 [Example 331, [4-[4-[8-(Dimethylamino)-7-quinolyl]phenoxy]-1-piperidyl]-[(2R)-tetrahydro-furan-2-yl]methanone]
1000 to 10000 | CCC(=O)N1CCC(Oc2ccc(-c3ccc4cccnc4c3N(C)C)cc2)CC1 [Example 332, 1-{4-[4-(8-Dimethylaminoquinolin-7-yl)-phenoxy]-piperidin-1-yl}-propan-1-one]
1000 to 10000 | CN(C)c1c(-c2ccc(OC3CCN(C(=O)C4CC4)CC3)cc2)ccc2cccnc12 [Example 333, Cyclopropyl-{4-[4-(8-dimethylamino-quinolin-7-yl)-phenoxy]-piperidin-1-yl}-methanone]
1000 to 10000 | CCC(=O)N1CCC(Oc2ccc(-c3ccc4cccnc4c3NCCN3CCCC3)cc2)CC1 [Example 335, 1-(4-{4-[8-(2-Pyrrolidin-1-yl-ethylamino)-quinolin-7-yl]-phenoxy}-piperidin-1-yl)-propan-1-one]
1000 to 10000 | CCC(=O)N1CC[C@H](Oc2ccc(-c3cnc4ccccc4c3)cc2)C1 [Example 343, (S)-1-(3-(4-(Quinolin-3-yl)phenoxy)pyrrolidin-1-yl)propan-1-one, HCl]
1 to 99 | CCC(=O)N1CCC(Oc2ccc(-c3cc(C)cc4ncccc34)cc2)CC1 [Example 348, 1-(4-(4-(7-methylquinolin-5-yl)phenoxy)piperidin-1-yl)propan-1-one HCl]
1 to 99 | Cc1cc(-c2ccc(OC3CCN(C(=O)C4CC4)CC3)cc2)c2cccnc2c1 [Example 349, Cyclopropyl-{4-[4-(7-methyl-quinolin-5-yl)-phenoxy]-piperidin-1-yl}-methanone, HCl]
1 to 99 | Cc1cc(-c2ccc(OC3CCN(C(=O)[C@H]4CCCO4)CC3)cc2)c2cccnc2c1 [Example 353, (R)-(4-(4-(7-Methylquinolin-5-yl)phenoxy)piperidin-1-yl)(tetrahydrofuran-2-yl)methanone]
100 to 999 | Cc1c(-c2ccc(OC3CCN(C(=O)C(C)(F)F)CC3)cc2)ccc2cccnc12 [Example 358, 2,2-Difluoro-1-{4-[4-(8-methylquinolin-7-yl)-phenoxy]-piperidin-1-yl}-propan-1-one, HCl]
1000 to 10000 | CCC(=O)N1[C@@H]2CC[C@H]1C[C@H](Oc1ccc(-c3ccc4cccnc4c3C)cc1)C2 [Example 361, 1-{exo-3-[4-(8-Methylquinolin-7-yl)-phenoxy]-8-aza-bicyclo[3.2.1]oct-8-yl}-propan-1-one HCl]
1 to 99 | Cc1c(-c2ccc(O[C@H]3CCN(C(=O)[C@H]4CCCO4)C[C@H]3F)cc2)ccc2cccnc12 [Example 366, {cis-3-Fluoro-4-[4-(8-methylquinolin-7-yl)-phenoxy]-piperidin-1-yl}-(R)-tetrahydrofuran-2-yl-methanone HCl]
1000 to 10000 | CC(C)C(=O)N1CCC(Oc2ccc(-c3ccc(-c4ccccc4)nc3)cc2)CC1 [Example 379, 2-Methyl-1-{4-[4-(6-phenylpyridin-3-yl)-phenoxy]-piperidin-1-yl}-propan-1-one]
1000 to 10000 | O=C(C1CC1)N1CCC(Oc2ccc(-c3ccc(-c4ccccc4)nc3)cc2)CC1 [Example 380, Cyclopropyl-{4-[4-(6-phenyl-pyridin-3-yl)-phenoxy]-piperidin-1-yl}-methanone]
1000 to 10000 | CCC(=O)N1CCC(Oc2ccc(-c3cncc(-c4ccccc4)c3)cc2)CC1 [Example 382, 1-{4-[4-(5-Phenylpyridin-3-yl)-phenoxy]-piperidin-1-yl}-propan-1-one]
